Data as given in patent publication US7108832B2, “Sterialization methods and apparatus which employ additive-containing supercritical carbon dioxide sterilant” (NovaSterilis Inc., priority 2003, dated 2006).
Several values for one entry are separate records, joined by “and”; a condition that tells them apart may be missing. Equal values may be shown once.

Experiments:
[1] = system: B. stearothermophilus spores; experiment: Comparative additives in supercritical CO2 sterilization (Example 7); type: cell-based; conditions: 1.0 vol. %
[2] = system: B. stearothermophilus spores; experiment: Inactivation of B. stearothermophilus spores, Dillow '864 method with and without additive (Example 1); type: cell-based; conditions: 1500–3000 psi, 3 cycles, agitation random/directional +/−, 60 °C, 2 hrs, initial 2.3 × 10^6 CFU/ml
Excerpt: The effects of using an additive in accordance with the present invention was compared using the method described by U.S. Pat. No. 6,149,864 to Dillow et al for inactivating B. stearothermophilus spores. […] In contrast, a greater than 6 log reduction was achieved using the method of the present invention (Ex. B). The additive was placed on a cotton ball and inserted in the chamber prior to closure. No further additive was used.

[3] = system: B. stearothermophilus spores; experiment: Sterilization of B. stearothermophilus spores with additive-containing supercritical CO2, residual CFU count (Example 2); type: cell-based; conditions: 4 mL additive + 6 mL water, 50° C., 2000 to 1100 psi, 3 cycles; multiple evaluations
Protocol: The apparatus generally depicted in FIGS. 1 and 2 was employed for this Example. A sample of B. stearothermophilus spores (1 mL) of greater than 10^6 CFU/mL was placed in 16 mm diameter test tubes in a stainless steel basket. Trifluoroacetic acid (4 mL) was transferred by syringe onto the surface of a cotton ball placed in the basket and water (6 mL) was placed at bottom of vessel. The basket was then loaded into the 600 mL reactor vessel. The reactor vessel was heated to 50° C. and equilibrated with CO2 at atmospheric pressure. The stirring and agitation mechanisms were activated and the reactor vessel pressurized to 2000 psi for 40 minutes. The CO2 pressure was then allowed to drop to 1100 psi at a rate of 300 psi/minute. Agitation by means of vibration of the vessel was carried out for 1 minute.
(§1) The pressurization/stirring/agitation/depressurization process was repeated a total of three times. After the third cycle, a series of three flushing cycles to remove the additive was performed by pressurizing and partial de-pressurizing the reactor vessel using CO2. The stirring was stopped and the basket was removed from the reactor vessel. The residual CFUs were counted after serial dilution and culturing of both treated and untreated controls.

bacterial spores = experiment: Sterility assay of fresh or freeze-dried bone samples after treatment (Example 4); type: cell-based; conditions: 4 mL additive, 50° C., 3000 to 1500 psi, 3 cycles of 40 minutes
Protocol: Using the equipment and procedure in Example 1, samples of fresh or freeze-dried bone (1 cm×1 cm×0.5 cm) were placed into 16 mm test tubes in a stainless steel basket. Trifluoroacetic acid (4 mL) was transferred by syringe onto the surface of a cotton ball placed in basket, and the basket then loaded into the 600 mL reactor vessel. The reactor vessel was heated to 50° C. and equilibrated with CO2 at atmospheric pressure. The stirring and agitation mechanisms were activated and vessel pressurized to 3000 psi for 40 minutes. Agitation is carried out for 5 minutes. The CO2 pressure was then allowed to drop to 1500 psi at a rate of 300 psi/minute.
The pressurization/stirring/agitation/depressurization process was repeated a total of 3 times. After the third cycle, a series of three flushing cycles to remove the additive was performed by pressurizing and de-pressurizing the reactor vessel using CO2. The stirring was stopped and the basket was removed from the reactor vessel. Bone samples were assayed for sterility and compression strength with the results being that there was sterilization (i.e., >10^6 reduction in bacterial spores), and there was no reduction in compression strength attributes.

[4] = system: B. subtilis spore/vegetative preparations; experiment: Sterilization of B. subtilis spore/vegetative preparations with additive-containing supercritical CO2, residual CFU count (Examples 3A-3D, 6A, 6B); type: cell-based; conditions: for kill of bioindicators: constant 2000 psi rather than cycling
Protocol: A sample of B. subtilis spore/vegetative preparations (1 mL) of greater than 10^6 CFU/mL was placed in a 16 mm diameter test tube in a stainless steel basket. Acetic acid (6 mL) was transferred by syringe onto the surface of a cotton ball placed in the basket, which was then loaded into the 600 mL reactor vessel. The reactor vessel was heated to 50° C. and equilibrated with CO2 at atmospheric pressure. […] Agitation was carried out for 1 minute.
After depressurizing the reactor vessel, more acetic acid (4 mL) was introduced at ambient pressure to the additive loop via port 18 (FIG. 1). The loop was sealed and pressurized to 3000 psi. The reactor vessel was the re-pressurized through the additive loop to 3000 psi such that acetic acid was transported into the reactor vessel.
as §1, with “pressurization/stirring/agitation/depressurization/additive addition” for “pressurization/stirring/agitation/depressurization”, “and” for “and partial”

[5] = system: B. stearothermophilus spores; experiment: Linearity of inactivation, B. stearothermophilus spore bioindicators in TYVEK pouches (Example 8); type: cell-based; conditions: 4.5% peracetic acid at 0.02 vol. % + water at 1 vol. %
Protocol: Example 2B was repeated except that 4.5% peracetic acid was initially added to the vessel at 0.02 vol. % on a cotton ball and water was added on a separate cotton ball at 1 vol. %. B. stearothermophilus spores were inoculated onto glass fiber filters, allowed to dry and packaged into pouches formed of nonwoven fine polyethylene fibers (1073B TYVEK® brand material) and served as bioindicators. Total CFUs per filter were greater than 10^6. The bioindicators were exposed to differing times of treatment with 4 replicates per time point. The total remaining CFUs were then determined and a plot was generated of log reduction in CFUs over time (FIG. 3).

B. subtilis spores = conditions: method of the Dillow et al '864 patent, other investigators (Spilimbergo et al 2002); cited from earlier work

O=C(O)CC(O)(CC(=O)O)C(=O)O [50% Citric acid, Citric acid]
Log reduction ([1]; 60 C, 2 hours, 3 cycles): 0.03–0.62 log

CCO [Ethanol]
Log reduction ([1]; 60–50 C, 3 hours, 4 cycles): 1.2–4.0 log

O [Ex. A, Water]
Final CFU/ml [2]: 2.1 × 10^5 CFU/ml | Log reduction [2]: 1 log and 1.0 log

O=CO [Formic acid]
Log reduction ([1]; 50 C, 2 hours, 3 cycles): 0 log

OCl [HOCl]
Log reduction ([1]; 60 C, 3 hours, 4 cycles): 0–0.50 log

O=C(O)CC(=O)O [Malonic acid]
Log reduction ([1]; 50 C, 2 hours, 3 cycles): 0–0.12 log

O=P(O)(O)O [Phosphoric acid]
Log reduction ([1]; 50 C, 2 hours, 3 cycles): 0.18–0.25 log

O=C(O)CCC(=O)O [Succinic acid]
Log reduction ([1]; 50 C, 2 hours, 3 cycles): 0.25–0.29 log

O=C(O)C(F)(F)F [Trifluoroacetic acid]
kill of bioindicators [3]: Complete kill | reduction in bacterial spores (sterility of bone samples) (bacterial spores): > 10^6

CC(=O)O [acetic acid]
kill of the B. subtilis present ([4]; Example 3B: as 3A, samples with less than 10^6 CFU/ml): total kill | log reduction in CFUs extrapolated for greater than 10^6 CFU/ml ([4]; Example 3B: extrapolated from total kill of samples with less than 10^6 CFU/ml): 6 log | kill of bioindicators ([4]; Example 3D: as 3A): Compete kill

CC(=O)OO [peracetic acid]
kill of bioindicators ([4]; Example 6B: as 6A): Complete kill | inactivation rates (log reduction in CFUs over time) ([5]; bioindicators in TYVEK pouches): linear | time for a single log reduction in the bioindicator ([5]; spores on glass fiber filters in TYVEK pouches, >10^6 CFUs per filter, 4 replicates per time point): 14.24 minutes

O=C=O [supercritical carbon dioxide, carbon dioxide]
log reduction in B. subtilis spores (B. subtilis spores): 3.5 log
